Among the data in patent US20260217767A1, “NOVEL A4B7 THIOETHER PEPTIDE DIMER ANTAGONISTS” (Protagonist Therapeutics, Inc., priority 2014, published 2026) are IC50 values, retold here.

SMILES strings stand for the structures. Where a SMILES comes first, the peptide text is derived from it.

For the assay, the target named is T1, RPMI 8866 cells (Homo sapiens, UniProt P13612+P26010).
T1 sequence (P13612 34-1032): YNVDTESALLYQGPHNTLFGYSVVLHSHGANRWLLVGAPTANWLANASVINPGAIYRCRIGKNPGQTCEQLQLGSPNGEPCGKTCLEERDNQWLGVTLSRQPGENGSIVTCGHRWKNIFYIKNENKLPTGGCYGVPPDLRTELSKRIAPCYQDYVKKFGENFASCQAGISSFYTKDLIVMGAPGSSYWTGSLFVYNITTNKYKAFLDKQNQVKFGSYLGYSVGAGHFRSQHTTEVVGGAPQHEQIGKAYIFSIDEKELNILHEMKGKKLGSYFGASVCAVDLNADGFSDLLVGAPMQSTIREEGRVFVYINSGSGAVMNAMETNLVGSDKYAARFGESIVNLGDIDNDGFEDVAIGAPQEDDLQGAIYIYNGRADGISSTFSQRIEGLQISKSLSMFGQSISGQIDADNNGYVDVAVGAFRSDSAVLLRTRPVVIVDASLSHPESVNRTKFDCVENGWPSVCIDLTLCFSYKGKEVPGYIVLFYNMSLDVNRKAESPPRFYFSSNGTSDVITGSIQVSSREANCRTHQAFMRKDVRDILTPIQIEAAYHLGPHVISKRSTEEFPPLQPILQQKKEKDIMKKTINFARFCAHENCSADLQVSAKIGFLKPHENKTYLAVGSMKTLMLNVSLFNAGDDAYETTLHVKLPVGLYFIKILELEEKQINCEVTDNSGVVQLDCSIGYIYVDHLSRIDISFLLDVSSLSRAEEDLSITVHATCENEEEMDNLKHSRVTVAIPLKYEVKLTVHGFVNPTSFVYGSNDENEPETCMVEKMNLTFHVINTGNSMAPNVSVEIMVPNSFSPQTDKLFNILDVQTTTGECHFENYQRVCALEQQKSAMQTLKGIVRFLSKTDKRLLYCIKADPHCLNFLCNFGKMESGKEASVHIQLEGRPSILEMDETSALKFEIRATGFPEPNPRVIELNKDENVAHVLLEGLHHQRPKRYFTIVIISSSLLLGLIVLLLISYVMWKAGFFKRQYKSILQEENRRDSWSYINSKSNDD
T1 sequence (P26010 20-798): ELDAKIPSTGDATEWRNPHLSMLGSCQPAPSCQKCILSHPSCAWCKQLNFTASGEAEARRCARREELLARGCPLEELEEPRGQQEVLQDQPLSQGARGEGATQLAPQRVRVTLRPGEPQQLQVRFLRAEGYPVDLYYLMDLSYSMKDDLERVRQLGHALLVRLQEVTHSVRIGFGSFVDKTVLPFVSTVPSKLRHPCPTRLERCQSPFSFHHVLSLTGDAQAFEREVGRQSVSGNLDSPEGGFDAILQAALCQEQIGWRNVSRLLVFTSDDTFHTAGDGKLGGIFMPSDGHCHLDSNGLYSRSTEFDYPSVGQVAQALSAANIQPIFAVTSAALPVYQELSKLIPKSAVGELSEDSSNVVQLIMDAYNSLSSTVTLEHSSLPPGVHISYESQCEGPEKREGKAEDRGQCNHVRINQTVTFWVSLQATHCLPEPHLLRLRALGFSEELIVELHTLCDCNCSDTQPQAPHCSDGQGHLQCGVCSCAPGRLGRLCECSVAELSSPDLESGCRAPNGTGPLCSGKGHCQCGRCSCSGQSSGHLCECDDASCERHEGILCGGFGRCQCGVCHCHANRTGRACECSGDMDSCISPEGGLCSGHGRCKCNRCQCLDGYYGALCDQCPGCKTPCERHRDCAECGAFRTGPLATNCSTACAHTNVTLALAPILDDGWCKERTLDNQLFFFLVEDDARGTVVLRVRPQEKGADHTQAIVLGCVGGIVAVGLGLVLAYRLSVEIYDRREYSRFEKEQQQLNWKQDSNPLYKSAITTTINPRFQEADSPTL
As to the kind of experiment: α4β7-MAdCAM Cell Adhesion Assay. Type of assay: cell-based. The note with it: thioether peptide dimers, Table 7; read-out: Cell-Adhesion A4B7. As for the experimental part: α4β7-MAdCAM Cell Adhesion Assay
RPMI 8866 cells (Sigma #95041316) were cultured in RPMI 1640 HEPES medium (Invitrogen #22400-089) supplemented with 10% serum (Fetal Bovine Serum, Invitrogen #16140-071), 1 mM sodium pyruvate (Invitrogen #11360-070), 2 mM L-glutamine (Invitrogen #25030-081) and Penicillin-Streptomycin (Invitrogen #15140-122) at 100 units of penicillin and 100 μg of streptomycin per ml. The cells were washed two times in DMEM medium (ATCC #30-2002) supplemented with 0.1% BSA, 10 mM HEPES pH 7 and 1 mM MnCl2. The cells were re-suspended in supplemented DMEM medium at a density of 4×10^6 cells/ml.
A Nunc MaxiSorp plate was coated with rh MAdCAM-1/Fc Chimera (R&D #6065-MC) at 200 ng per well in 50 ul per well in 1×PBS and incubated at 4° C. overnight. The solution was then removed by shaking, blocked with 250 ul per well PBS containing 1% BSA, and incubated at 37° C. for 1 hr. The solution was removed by shaking. Peptides were diluted by serial dilution in a final volume of 50 ul per well (2× concentration). To each well, 50 ul of cells (200,000 cells) were added and the plate was incubated at 37° C., 5% CO2 for 30-45 min to allow cell adhesion. The wells were washed manually three times (100 ul per wash) with supplemented DMEM. After the final wash, 100 μl/well of supplemented DMEM and 10 ul/well of MTT reagent (ATTC cat #30-1010K) were added. The plate was incubated at 37° C., 5% CO2 for 2-3 hrs until a purple precipitate is visible. 100 ul of Detergent Reagent (ATTC cat #30-1010K) was added to each well. The plate was covered from the light, wrapped in Parafilm to prevent evaporation, and left overnight at room temperature in the dark. The plate was shaken for 5 min and the absorbance at 570 nm is measured. To calculate the dose response, the absorbance value of control wells not containing cells was subtracted from each test well.

Consider `CC(C)C[C@@H]1NC(=O)[C@H]([C@@H](C)O)NC(=O)[C@H](CCC(=O)O)NC(=O)[C@H](CO)NC(=O)[C@H](CCCNC(=N)N)N(C)C(=O)c2ccccc2CSC(C)(C)[C@@H](C(=O)N[C@@H](Cc2ccccc2)C(=O)N[C@H](CCC(=O)O)C(=O)N[C@H](CCCCN)C(N)=O)NC1=O` [compound 189] (HELM PEPTIDE1{[meR].S.E.T.L.[Pen].F.[dE].[dK].[am]}|CHEM1{[O=C(c1ccccc1C[*:2])[*:1]]}$PEPTIDE1,CHEM1,1:R1-1:R1|PEPTIDE1,CHEM1,6:R3-1:R2$$$V2.0), for which the IC50 is over 1 µM. As for `CC(C)C[C@@H]1NC(=O)[C@H]([C@@H](C)O)NC(=O)[C@H](CC(=O)O)NC(=O)[C@H](CO)NC(=O)[C@H](CCCNC(=N)N)N(C)C(=O)c2ccccc2CSC(C)(C)[C@@H](C(=O)N[C@@H](Cc2c[nH]c3ccccc23)C(=O)N[C@H](CCC(=O)O)C(=O)N[C@@H](CC(C)C)C(=O)N[C@H](CCCCN)C(N)=O)NC1=O` [compound 190] (HELM PEPTIDE1{[meR].S.D.T.L.[Pen].W.[dE].L.[dK].[am]}|CHEM1{[O=C(c1ccccc1C[*:2])[*:1]]}$PEPTIDE1,CHEM1,1:R1-1:R1|PEPTIDE1,CHEM1,6:R3-1:R2$$$V2.0), the IC50 is under 0.025 µM. As for `CC(C)C[C@@H]1NC(=O)[C@H]([C@@H](C)O)NC(=O)[C@H](CC(=O)O)NC(=O)[C@H](CO)NC(=O)[C@H](CCCNC(=N)N)N(C)C(=O)c2ccccc2CSC(C)(C)[C@@H](C(=O)N[C@@H](Cc2c[nH]c3ccccc23)C(=O)N[C@H](CCC(=O)O)C(=O)N[C@@H](Cc2ccccc2)C(=O)N[C@H](CCCCN)C(N)=O)NC1=O` [compound 192] (HELM PEPTIDE1{[meR].S.D.T.L.[Pen].W.[dE].F.[dK].[am]}|CHEM1{[O=C(c1ccccc1C[*:2])[*:1]]}$PEPTIDE1,CHEM1,1:R1-1:R1|PEPTIDE1,CHEM1,6:R3-1:R2$$$V2.0), the IC50 is under 0.025 µM. Regarding `CC(C)C[C@@H]1NC(=O)[C@H]([C@@H](C)O)NC(=O)[C@H](CC(=O)O)NC(=O)[C@H](CO)NC(=O)[C@H](CCCNC(=N)N)N(C)C(=O)c2ccccc2CSC(C)(C)[C@@H](C(=O)N[C@@H](Cc2c[nH]c3ccccc23)C(=O)N[C@H](CCC(=O)O)C(=O)N[C@@H](Cc2c[nH]cn2)C(=O)N[C@H](CCCCN)C(N)=O)NC1=O` [compound 193] (HELM PEPTIDE1{[meR].S.D.T.L.[Pen].W.[dE].H.[dK].[am]}|CHEM1{[O=C(c1ccccc1C[*:2])[*:1]]}$PEPTIDE1,CHEM1,1:R1-1:R1|PEPTIDE1,CHEM1,6:R3-1:R2$$$V2.0), the IC50 was under 0.025 µM. For `CC(C)C[C@@H]1NC(=O)[C@H]([C@@H](C)O)NC(=O)[C@H](CC(=O)O)NC(=O)[C@H](CO)NC(=O)[C@H](CCCNC(=N)N)N(C)C(=O)c2ccccc2CSC(C)(C)[C@@H](C(=O)N[C@@H](Cc2c[nH]c3ccccc23)C(=O)N[C@H](CCC(=O)O)C(=O)N[C@@H](Cc2ccc(O)cc2)C(=O)N[C@H](CCCCN)C(N)=O)NC1=O` [compound 195] (HELM PEPTIDE1{[meR].S.D.T.L.[Pen].W.[dE].Y.[dK].[am]}|CHEM1{[O=C(c1ccccc1C[*:2])[*:1]]}$PEPTIDE1,CHEM1,1:R1-1:R1|PEPTIDE1,CHEM1,6:R3-1:R2$$$V2.0), the IC50 was under 0.025 µM. The value for `CC(C)C[C@@H]1NC(=O)[C@H]([C@@H](C)O)NC(=O)[C@H](CC(=O)O)NC(=O)[C@H](CO)NC(=O)[C@H](CCCNC(=N)N)N(C)C(=O)c2ccccc2CSC(C)(C)[C@@H](C(=O)N[C@@H](Cc2c[nH]c3ccccc23)C(=O)N[C@H](CCC(=O)O)C(=O)N[C@H](CO)C(=O)N[C@H](CCCCN)C(N)=O)NC1=O` [compound 197] (HELM PEPTIDE1{[meR].S.D.T.L.[Pen].W.[dE].[dS].[dK].[am]}|CHEM1{[O=C(c1ccccc1C[*:2])[*:1]]}$PEPTIDE1,CHEM1,1:R1-1:R1|PEPTIDE1,CHEM1,6:R3-1:R2$$$V2.0) was under 0.025 µM; that for `CC(C)C[C@@H]1NC(=O)[C@H]([C@@H](C)O)NC(=O)[C@H](CC(=O)O)NC(=O)[C@H](CO)NC(=O)[C@H](CCCNC(=N)N)N(C)C(=O)c2ccccc2CSC(C)(C)[C@@H](C(=O)N[C@@H](Cc2c[nH]c3ccccc23)C(=O)N[C@H](CCC(=O)O)C(=O)N[C@H](Cc2ccccc2)C(=O)N[C@H](CCCCN)C(N)=O)NC1=O` [compound 198] (HELM PEPTIDE1{[meR].S.D.T.L.[Pen].W.[dE].[dF].[dK].[am]}|CHEM1{[O=C(c1ccccc1C[*:2])[*:1]]}$PEPTIDE1,CHEM1,1:R1-1:R1|PEPTIDE1,CHEM1,6:R3-1:R2$$$V2.0) was under 0.025 µM; that for `CC(C)C[C@@H]1NC(=O)[C@H]([C@@H](C)O)NC(=O)[C@H](CC(=O)O)NC(=O)[C@H](CO)NC(=O)[C@H](CCCNC(=N)N)N(C)C(=O)c2ccccc2CSC(C)(C)[C@@H](C(=O)N[C@@H](Cc2c[nH]c3ccccc23)C(=O)N[C@H](CCC(=O)O)C(=O)N[C@H](Cc2c[nH]cn2)C(=O)N[C@H](CCCCN)C(N)=O)NC1=O` [compound 199] (HELM PEPTIDE1{[meR].S.D.T.L.[Pen].W.[dE].[dH].[dK].[am]}|CHEM1{[O=C(c1ccccc1C[*:2])[*:1]]}$PEPTIDE1,CHEM1,1:R1-1:R1|PEPTIDE1,CHEM1,6:R3-1:R2$$$V2.0) was under 0.025 µM. For the compound `CC(C)C[C@@H]1NC(=O)[C@H]([C@@H](C)O)NC(=O)[C@H](CC(=O)O)NC(=O)[C@H](CO)NC(=O)[C@H](CCCNC(=N)N)N(C)C(=O)c2ccccc2CSC(C)(C)[C@@H](C(=O)N[C@@H](Cc2c[nH]c3ccccc23)C(=O)N[C@H](CCC(=O)O)C(=O)N[C@H](CCC(=O)O)C(=O)N[C@H](CCCCN)C(N)=O)NC1=O` [compound 200] (HELM PEPTIDE1{[meR].S.D.T.L.[Pen].W.[dE].[dE].[dK].[am]}|CHEM1{[O=C(c1ccccc1C[*:2])[*:1]]}$PEPTIDE1,CHEM1,1:R1-1:R1|PEPTIDE1,CHEM1,6:R3-1:R2$$$V2.0), the IC50 was under 0.025 µM.
